One assay has as its target JAK2 kinase domain (JH1) (Homo sapiens (Human), UniProt O60674). In words: JAK2 Radioactive Kinase Assay. Format: biochemical. The settings on record: compound at 10 μM; ATP at 10 μM; substrate poly[Glu:Tyr](4:1). How it is done: (§1) Peptide substrate, [KKSRGDYMTMQIG], (20 μM) was prepared in reaction buffer (20 mM Hepes pH 7.5, 10 mM MgCl2, 1 mM EGTA, 0.02% Brij35, 0.02 mg/mL BSA, 0.1 mM […], 2 mM DTT, 1% DMSO). TYK2 (Invitrogen) kinase was added, followed by compounds in DMSO. ^33PATP was added to initiate the reaction in ATP at 10 μM. The kinase reaction was incubated for 120 min at room temp and reactions were spotted onto P81 ion exchange paper (Whatman #3698-915), and then washed extensively in 0.75% phosphoric acid, prior to reading the radioactivity counts. For JAK2 (Invitrogen) kinase assay the peptide substrate poly[Glu:Tyr](4:1), 0.2 mg/ml was used, in the reaction carried out the same as for TYK2.
(§2) The TYK2 and JAK2 radioactive kinase assay measures the percent inhibition at the TYK2 kinase domain (JH1) and the percent inhibition at the JAK2 kinase domain (JH1). Results of the assay are expressed as percent inhibition at 10 μM.

The next assay has as its target TYK2 kinase domain (JH1) (Homo sapiens (Human), UniProt P29597). In words: TYK2 Radioactive Kinase Assay. Format: biochemical. The following applies: compound at 10 μM; ATP at 10 μM; 120 min at room temp. How it is done: as §1, §2
Assay [1] addresses human TYK2 (JH2domain-pseudokinase) (Homo sapiens (Human), UniProt P29597). In words: TYK2 JH2 Domain Binding Assay (KINOMEscan). The following applies: 11-point 3-fold dilution, top concentration 30,000 nM, duplicate. The method in brief: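 Competition binding used an NFkB-DNA-tagged fusion of TYK2 JH2 (G556–D888) expressed in HEK293 extracts against an immobilised ligand, 1 h at room temperature. Bead-bound kinase was quantified by qPCR. Kd came from an 11-point 3-fold series with a 30,000 nM top concentration and 0.9% DMSO, Hill slope −1, run in duplicate.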

The values that follow come from patent publication US11053241B2, “TYK2 inhibitors and uses thereof” (Nimbus Lakshmi, Inc., priority 2018, dated 2021).

Some results are limits rather than exact numbers.

Chain of JAK2 kinase domain (JH1) (O60674 849-1124): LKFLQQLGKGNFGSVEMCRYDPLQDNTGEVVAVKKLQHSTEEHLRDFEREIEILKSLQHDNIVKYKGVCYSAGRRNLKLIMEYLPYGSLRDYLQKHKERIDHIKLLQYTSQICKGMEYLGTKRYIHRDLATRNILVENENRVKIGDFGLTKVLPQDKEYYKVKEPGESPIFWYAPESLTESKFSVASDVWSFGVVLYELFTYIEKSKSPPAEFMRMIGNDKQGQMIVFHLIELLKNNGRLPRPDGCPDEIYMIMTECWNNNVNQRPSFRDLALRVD
Chain of TYK2 kinase domain (JH1) (P29597 897-1176): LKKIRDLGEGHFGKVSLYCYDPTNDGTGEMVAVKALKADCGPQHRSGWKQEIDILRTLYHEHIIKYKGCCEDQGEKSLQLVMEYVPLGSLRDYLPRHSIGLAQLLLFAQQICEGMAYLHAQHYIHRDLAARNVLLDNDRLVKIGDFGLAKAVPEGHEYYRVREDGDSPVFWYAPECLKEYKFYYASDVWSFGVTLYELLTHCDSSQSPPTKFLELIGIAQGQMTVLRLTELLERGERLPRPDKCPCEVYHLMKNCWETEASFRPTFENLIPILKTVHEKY
Chain of human TYK2 (JH2domain-pseudokinase) (P29597 556-888): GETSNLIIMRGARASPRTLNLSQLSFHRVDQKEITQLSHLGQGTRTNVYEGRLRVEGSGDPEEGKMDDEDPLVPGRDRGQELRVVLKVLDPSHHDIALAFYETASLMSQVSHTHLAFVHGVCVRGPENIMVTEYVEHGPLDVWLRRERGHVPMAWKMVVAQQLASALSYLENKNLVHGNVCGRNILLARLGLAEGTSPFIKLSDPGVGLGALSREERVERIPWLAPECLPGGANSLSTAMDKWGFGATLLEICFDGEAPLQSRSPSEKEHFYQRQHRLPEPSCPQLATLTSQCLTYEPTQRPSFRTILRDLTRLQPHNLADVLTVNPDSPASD

What is called inhibition is the change of the read-out against control, counted positive when it falls. The Kd is a measure of binding affinity in units of concentration. Lower therefore signals a tighter complex. Consider `[2H]C([2H])([2H])NC(=O)c1cnc(NC(=O)C2CC2)c2[nH]c(-c3cc(-c4ncn(C)n4)ccn3)cc12` [Compound I-16, 7-(cyclopropanecarboxamido)-N-(methyl-d3)-2-(4-(1-methyl-1H-1,2,4-triazol-3-yl)pyridin-2-yl)-1H-pyrrolo[2,3-c]pyridine-4-carboxamide], for which the inhibition at 10 µM on JAK2 kinase domain (JH1) and on TYK2 kinase domain (JH1) was less than 50% throughout. The compound further came in with a Kd in assay [1] of less than 0.2 nM.

On to `CNC(=O)c1cnc(NC(=O)C2CC2)c2[nH]c(-c3cc(-n4ccc(C)n4)ccn3)cc12` [Compound I-17, 7-(cyclopropanecarboxamido)-N-methyl-2-(4-(3-methyl-1H-pyrazol-1-yl)pyridin-2-yl)-1H-pyrrolo[2,3-c]pyridine-4-carboxamide], for which the inhibition at 10 µM on JAK2 kinase domain (JH1) and at TYK2 kinase domain (JH1) was less than 50% throughout. Moreover, the Kd in assay [1] lay in the range of 0.2 to 1 nM.

As to `[2H]C([2H])([2H])NC(=O)c1cnc(NC(=O)C2CC2)c2[nH]c(-c3ccccc3)cc12` [Compound I-3, 7-(cyclopropanecarboxamido)-N-(methyl-d3)-2-phenyl-1H-pyrrolo[2,3-c]pyridine-4-carboxamide], the inhibition at 10 µM on JAK2 kinase domain (JH1) and at TYK2 kinase domain (JH1) was less than 50% each time. This compound yielded a Kd in assay [1] of 0.2 to 1 nM.

With `CCOc1ncccc1-c1cc2c(C(=O)NC)cnc(NC(=O)C3CC3)c2[nH]1` [Compound I-33, 7-(cyclopropanecarboxamido)-2-(2-ethoxypyridin-3-yl)-N-methyl-1H-pyrrolo[2,3-c]pyridine-4-carboxamide], the inhibition at 10 µM at JAK2 kinase domain (JH1) and at TYK2 kinase domain (JH1) was less than 50% in each case. The Kd in assay [1] lay in the range of 0.2 to 1 nM.

Regarding `CNC(=O)c1cnc(NC(=O)C2CC2)c2[nH]c(-c3cccc(-c4ncn(C)n4)n3)cc12` [Compound I-32, 7-(cyclopropanecarboxamido)-N-methyl-2-(6-(1-methyl-1H-1,2,4-triazol-3-yl)pyridin-2-yl)-1H-pyrrolo[2,3-c]pyridine-4-carboxamide], the inhibition at 10 µM on JAK2 kinase domain (JH1) and on TYK2 kinase domain (JH1) was less than 50% throughout. In assay [1], the Kd was 0.2 to 1 nM.

For the compound `CNC(=O)c1ccc(-c2cc3c(C(=O)NC)cnc(NC(=O)C4CC4)c3[nH]2)c(OC)c1` [Compound I-29, 7-(cyclopropanecarboxamido)-2-(2-methoxy-4-(methylcarbamoyl)phenyl)-N-methyl-1H-pyrrolo[2,3-c]pyridine-4-carboxamide], the inhibition at 10 µM at JAK2 kinase domain (JH1) and on TYK2 kinase domain (JH1) was less than 50% in each case. The compound further had a Kd in assay [1] of 0.2 to 1 nM.

As to `CNC(=O)c1cnc(NC(=O)C2CC2)c2[nH]c(-c3ccc4ccn(C)c4c3F)cc12` [Compound I-21, 7-(cyclopropanecarboxamido)-2-(7-fluoro-1-methyl-1H-indol-6-yl)-N-methyl-1H-pyrrolo[2,3-c]pyridine-4-carboxamide], the inhibition at 10 µM on JAK2 kinase domain (JH1) and on TYK2 kinase domain (JH1) was less than 50% each time. In addition, in assay [1], the Kd was less than 0.2 nM.

Turning to `CNC(=O)c1cnc(NC(=O)C2CC2)c2[nH]c(-c3cccc(N4CCOCC4)c3F)cc12` [Compound I-22, 7-(cyclopropanecarboxamido)-2-(2-fluoro-3-morpholinophenyl)-N-methyl-1H-pyrrolo[2,3-c]pyridine-4-carboxamide], the inhibition at 10 µM on JAK2 kinase domain (JH1) and on TYK2 kinase domain (JH1) was less than 50% throughout. In assay [1], this compound registered a Kd of less than 0.2 nM.

With `CNC(=O)c1cnc(NC(=O)C2CC2)c2[nH]c(-c3cccc(-c4nc(C)n(C)n4)c3)cc12` [Compound I-28, 7-(cyclopropanecarboxamido)-2-(3-(1,5-dimethyl-1H-1,2,4-triazol-3-yl)phenyl)-N-methyl-1H-pyrrolo[2,3-c]pyridine-4-carboxamide], the inhibition at 10 µM at JAK2 kinase domain (JH1) and on TYK2 kinase domain (JH1) was less than 50% in each case. In assay [1], the Kd was 0.2 to 1 nM.

With `CNC(=O)c1cnc(NC(=O)C2CC2)c2[nH]c(-c3ccc4cn(C5CC5)nc4c3)cc12` [Compound I-20, 7-(cyclopropanecarboxamido)-2-(2-cyclopropyl-2H-indazol-6-yl)-N-methyl-1H-pyrrolo[2,3-c]pyridine-4-carboxamide], the inhibition at 10 µM at JAK2 kinase domain (JH1) and on TYK2 kinase domain (JH1) was less than 50% throughout. This compound showed a Kd in assay [1] of 0.2 to 1 nM.

In the case of `CNC(=O)c1cnc(NC(=O)C2CC2)c2[nH]c(-c3cccc(-c4ncn(C)n4)c3F)cc12` [Compound I-36, 7-(cyclopropanecarboxamido)-2-(2-fluoro-3-(1-methyl-1H-1,2,4-triazol-3-yl)phenyl)-N-methyl-1H-pyrrolo[2,3-c]pyridine-4-carboxamide], the inhibition at 10 µM on JAK2 kinase domain (JH1) and at TYK2 kinase domain (JH1) was less than 50% throughout. In assay [1], this compound registered a Kd of less than 0.2 nM.

In the case of `CNC(=O)c1cnc(NC(=O)C2CC2)c2[nH]c(-c3cc(-c4csc(C)n4)ccn3)cc12` [Compound I-10, 7-(cyclopropanecarboxamido)-N-methyl-2-(4-(2-methylthiazol-4-yl)pyridin-2-yl)-1H-pyrrolo[2,3-c]pyridine-4-carboxamide], the inhibition at 10 µM at JAK2 kinase domain (JH1) and on TYK2 kinase domain (JH1) was less than 50% throughout. The same compound yielded a Kd in assay [1] of 0.2 to 1 nM.

On to `CNC(=O)c1cnc(NC(=O)C2CC2)c2[nH]c(-c3cccc(-n4cnnc4)c3)cc12` [Compound I-18, 2-(3-(4H-1,2,4-triazol-4-yl)phenyl)-7-(cyclopropanecarboxamido)-N-methyl-1H-pyrrolo[2,3-c]pyridine-4-carboxamide], for which the inhibition at 10 µM on JAK2 kinase domain (JH1) and on TYK2 kinase domain (JH1) was less than 50% each time. The compound also displayed a Kd in assay [1] of 0.2 to 1 nM.

As to `CNC(=O)c1cnc(NC(=O)C2CC2)c2[nH]c(-c3cc(-c4nccs4)ccn3)cc12` [Compound I-14, 7-(cyclopropanecarboxamido)-N-methyl-2-(4-(thiazol-2-yl)pyridin-2-yl)-1H-pyrrolo[2,3-c]pyridine-4-carboxamide], the inhibition at 10 µM on JAK2 kinase domain (JH1) and at TYK2 kinase domain (JH1) was less than 50% throughout. The compound also came in with a Kd in assay [1] of 0.2 to 1 nM.

Take `CNC(=O)c1cnc(NC(=O)C2CC2)c2[nH]c(-c3cccc(C4=NC(C)(C)CS4)c3)cc12` [Compound I-11, 7-(cyclopropanecarboxamido)-2-(3-(4,4-dimethyl-4,5-dihydrothiazol-2-yl)phenyl)-N-methyl-1H-pyrrolo[2,3-c]pyridine-4-carboxamide]: the inhibition at 10 µM at JAK2 kinase domain (JH1) and at TYK2 kinase domain (JH1) was less than 50% throughout. Further, the Kd in assay [1] was 0.2 to 1 nM.

On to `CNC(=O)c1cnc(NC(=O)C2CC2)c2[nH]c(-c3cccc(-n4nccn4)c3)cc12` [Compound I-8, 2-(3-(2H-1,2,3-triazol-2-yl)phenyl)-7-(cyclopropanecarboxamido)-N-methyl-1H-pyrrolo[2,3-c]pyridine-4-carboxamide], for which the inhibition at 10 µM at JAK2 kinase domain (JH1) and on TYK2 kinase domain (JH1) was less than 50% throughout. In assay [1], this compound yielded a Kd of 1 to 10 nM.

In the case of `CNC(=O)c1cnc(NC(=O)C2CC2)c2[nH]c(-c3cccc(-c4cnc(C)cn4)c3)cc12` [Compound I-27, 7-(cyclopropanecarboxamido)-N-methyl-2-(3-(5-methylpyrazin-2-yl)phenyl)-1H-pyrrolo[2,3-c]pyridine-4-carboxamide], the inhibition at 10 µM at JAK2 kinase domain (JH1) and at TYK2 kinase domain (JH1) was less than 50% throughout. The same compound yielded a Kd in assay [1] of less than 0.2 nM.
